Molecules are shown by their SMILES. Entries after “also recorded” stand apart in the source; their conditions may differ. Read-outs that look alike come from different tables or passages of the source.

The target of series [1] is T1, human NTCP (Homo sapiens, UniProt Q14973).
T1 sequence (Q14973 1-349): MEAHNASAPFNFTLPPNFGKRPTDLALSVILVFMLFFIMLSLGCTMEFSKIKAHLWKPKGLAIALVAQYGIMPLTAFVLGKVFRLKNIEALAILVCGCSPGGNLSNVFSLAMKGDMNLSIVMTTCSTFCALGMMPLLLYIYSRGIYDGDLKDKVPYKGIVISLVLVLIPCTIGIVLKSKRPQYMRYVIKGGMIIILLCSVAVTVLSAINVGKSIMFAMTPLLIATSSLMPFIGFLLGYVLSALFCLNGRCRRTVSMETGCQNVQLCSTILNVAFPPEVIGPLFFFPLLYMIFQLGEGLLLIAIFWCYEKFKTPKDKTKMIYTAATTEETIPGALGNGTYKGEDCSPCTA
Description: Uptake study on NTCP-HEK293 cells. The series is classed as cell-based. The following applies: for NTCP substrate (in words): uptake in presence versus absence of sodium; for Normalized Jmax: Jmax of compound normalized against Jmax of taurocholate; for Kt: Michaelis-Menten constant of uptake, 5 min, 0-200 μM in HBSS.

For series [2], the target named is T1, human NTCP. The following applies: ref Dong et al., 2013, cited from earlier work.
The next series relates to NTCP-HEK293 cells. Description: Passive uptake in the absence of sodium.
Series [3] addresses T1, human NTCP. Description: Inhibition of irbesartan or losartan uptake by taurocholate in NTCP-HEK293 cells. The series is classed as cell-based. The following applies: substrates irbesartan or losartan.
The target in series [4] is T1, human NTCP. Description: Inhibition of taurocholate uptake into NTCP-HEK293 cells. The series is classed as cell-based. The following applies: for Inhibition of NTCP taurocholate uptake (in words): NTCP-HEK293 cells, 0-200 μM.

With `CC(C)OC(=O)C(C)(C)Oc1ccc(C(=O)c2ccc(Cl)cc2)cc1` [Fenofibrate], the “NTCP substrate (in words)” value at human NTCP [1] (NTCP-HEK293 cells) is “not to be NTCP substrates”. Also, on human NTCP [2], the “Previously identified as NTCP inhibitor (in words)” value is recorded as “previously observed them to be inhibitors”.

Take `C[C@H](CCC(=O)NCCS(=O)(=O)O)[C@H]1CC[C@H]2[C@@H]3CC[C@@H]4C[C@H](O)CC[C@]4(C)[C@H]3CC[C@]12C` [TLCA, taurolithocholate]: in the series on NTCP-HEK293 cells, the “Pp (passive permeability)” value was found to be 3.37 ± 0.63 cm/s ×10^6. The “Normalized Jmax” value on human NTCP [1] was 0.495 ± 0.053. At human NTCP [1] (NTCP-HEK293 cells), this compound returned a Kt of 6.50 ± 1.87 µM.

Consider `C[C@H](CCC(=O)NCC(=O)O)[C@H]1CC[C@H]2[C@@H]3[C@H](O)C[C@@H]4C[C@H](O)CC[C@]4(C)[C@H]3CC[C@]12C` [GCDCA, glycochenodeoxycholate], for which the “Pp (passive permeability)” value with NTCP-HEK293 cells is reported as 2.17 ± 0.32 cm/s ×10^6. For the same compound, the “Normalized Jmax” value at human NTCP [1] turned out to be 0.726 ± 0.091. Moreover, the Kt on human NTCP [1] (NTCP-HEK293 cells) stood at 10.9 ± 1.8 µM.

As for `C[C@H](CCC(=O)NCCS(=O)(=O)O)[C@H]1CC[C@H]2[C@@H]3[C@H](O)C[C@@H]4C[C@H](O)CC[C@]4(C)[C@H]3C[C@H](O)[C@]12C` [TCA, taurocholate], on human NTCP [1], the “Normalized Jmax” value was determined as 0.708 ± 0.057. This compound registered a Kt at human NTCP [1] (NTCP-HEK293 cells) of 19.8 ± 2.5 µM. Moreover, the “Kt (NTCP taurocholate Michaelis-Menten constant)” value on human NTCP [2] (used in Equation 1) is 22.7(+3.4) μM. Also, at human NTCP [3], the “Inhibition of irbesartan and losartan uptake (in words)” value was “inhibited irbesartan and losartan uptake in a concentration dependent fashion”.

Consider `C[C@H](CCC(=O)O)[C@H]1CC[C@H]2[C@@H]3[C@H](O)C[C@@H]4C[C@H](O)CC[C@]4(C)[C@H]3C[C@H](O)[C@]12C` [CA, cholate], for which the “Pp (passive permeability)” value with NTCP-HEK293 cells came to 4.56 ± 0.06 cm/s ×10^6. Further, on human NTCP [1], the “Normalized Jmax” value worked out at 0.523 ± 0.081. Moreover, on human NTCP [1] (NTCP-HEK293 cells), the Kt amounted to 54.9 µM and the “NTCP substrate (in words)” value was “substrates”.

Take `CCCCc1nc(Cl)c(CO)n1Cc1ccc(-c2ccccc2-c2nn[nH]n2)cc1` [Losartan]: the “Pp (passive permeability)” value with NTCP-HEK293 cells came to 1.48 ± 0.12 cm/s ×10^6.

`CC(C)c1nc(N(C)S(C)(=O)=O)nc(-c2ccc(F)cc2)c1/C=C/[C@@H](O)C[C@@H](O)CC(=O)O` [Rosuvastatin]: the “Pp (passive permeability)” value in the series on NTCP-HEK293 cells came out at 0.330 ± 0.006 cm/s ×10^6.

As for `CC(C)[C@H](NC(=O)CC[C@@H](C)[C@H]1CC[C@H]2[C@@H]3[C@H](O)C[C@@H]4C[C@H](O)CC[C@]4(C)[C@H]3CC[C@]12C)C(=O)O` [CDCA-L-Val-OH], in the series with NTCP-HEK293 cells, the “Pp (passive permeability)” value is on record as 1.47 ± 0.09 cm/s ×10^6. For the same compound, the “Normalized Jmax” value at human NTCP [1] worked out at 0.330 ± 0.031. The compound further yielded a Kt at human NTCP [1] (NTCP-HEK293 cells) of 9.62 ± 1.47 µM.

Turning to `C[C@H](CCC(=O)NCCS(=O)(=O)O)[C@H]1CC[C@H]2[C@@H]3[C@@H](O)C[C@@H]4C[C@H](O)CC[C@]4(C)[C@H]3CC[C@]12C` [TUDCA, tauroursodeoxycholate], the “Normalized Jmax” value on human NTCP [1] is given as 0.409 ± 0.038. The Kt at human NTCP [1] (NTCP-HEK293 cells) is 9.53 µM.

As to `C[C@H](CCC(=O)N[C@@H](CCC(=O)OCc1ccccc1)C(=O)O)[C@H]1CC[C@H]2[C@@H]3[C@H](O)C[C@@H]4C[C@H](O)CC[C@]4(C)[C@H]3CC[C@]12C` [CDCA-L-Glu-γ-Benzyl Ester], the “Pp (passive permeability)” value in the series on NTCP-HEK293 cells is reported as 7.70 ± 0.23 cm/s ×10^6. The “Normalized Jmax” value at human NTCP [1] was 0.233 ± 0.036. Also, the Kt at human NTCP [1] (NTCP-HEK293 cells) was 11.7 ± 4.3 µM.

For `C[C@H](CCC(=O)NCC(=O)O)[C@H]1CC[C@H]2[C@@H]3CC[C@@H]4C[C@H](O)CC[C@]4(C)[C@H]3CC[C@]12C` [GLCA, glycolithocholate], the “Pp (passive permeability)” value in the series with NTCP-HEK293 cells was 6.67 ± 0.95 cm/s ×10^6. Moreover, the “Normalized Jmax” value at human NTCP [1] stood at 0.384 ± 0.070. In addition, at human NTCP [1] (NTCP-HEK293 cells), the Kt was determined as 4.87 ± 3.49 µM. Also, the Ki on human NTCP [4] is about 5 µM; at human NTCP [4] (listed as Lithocholate Glycine) it was 7.29 µM.

Consider `C[C@H](CCC(=O)O)[C@H]1CC[C@H]2[C@@H]3C(=O)C[C@@H]4CC(=O)CC[C@]4(C)[C@H]3CC(=O)[C@]12C` [DHCA, dehydrocholate], for which the “Inhibition of NTCP taurocholate uptake (in words)” value at human NTCP [4] was “not an inhibitor of NTCP”.

Take `C[C@H](CCC(=O)O)[C@H]1CC[C@H]2[C@@H]3CC[C@@H]4C[C@H](O)CC[C@]4(C)[C@H]3CC[C@]12C` [LCA, lithocholate]: the “Pp (passive permeability)” value in the series with NTCP-HEK293 cells is 33.9 ± 3.3 cm/s ×10^6. In addition, at human NTCP [1] (NTCP-HEK293 cells), the “NTCP substrate (in words)” value is on record as “indistinguishable uptake in the presence or absence of sodium; also recorded: not an apparent substrate”.

On to `CCCCC1=NC2(CCCC2)C(=O)N1Cc1ccc(-c2ccccc2-c2nnn[nH]2)cc1` [Irbesartan], for which the “Pp (passive permeability)” value with NTCP-HEK293 cells is 6.27 ± 0.14 cm/s ×10^6. The “Normalized Jmax” value at human NTCP [1] stood at 0.172 ± 0.022. On human NTCP [1] (NTCP-HEK293 cells), the Kt is 32.7 ± 5.9 µM and the “NTCP substrate (in words)” value is reported as “substrates of human NTCP”. Also, at human NTCP [1] (maximal flux, NTCP-HEK293 cells), the Jmax turned out to be 0.430 ± 0.026 pmol/sec/cm^2. Also, the “Jmax relative to taurocholate Jmax” value on human NTCP [1] (versus taurocholate Jmax) is reported as “about 20%”. The “Previously identified as NTCP inhibitor (in words)” value at human NTCP [2] is listed as “previously identified as NTCP inhibitors”.

As to `C[C@H](CCC(=O)NCC(=O)O)[C@H]1CC[C@H]2[C@@H]3[C@H](O)C[C@@H]4C[C@H](O)CC[C@]4(C)[C@H]3C[C@H](O)[C@]12C` [GCA, glycocholate], at human NTCP [1], the “Normalized Jmax” value is listed as 0.508 ± 0.041. The same compound registered a Kt at human NTCP [1] (NTCP-HEK293 cells) of 15.8 ± 2.7 µM.

For `C[C@H](CCC(=O)O)[C@H]1CC[C@H]2[C@@H]3[C@@H](O)C[C@@H]4C[C@H](O)CC[C@]4(C)[C@H]3CC[C@]12C` [UDCA, ursodeoxycholate], the “Pp (passive permeability)” value in the series with NTCP-HEK293 cells worked out at 26.3 ± 1.1 cm/s ×10^6. The “Normalized Jmax” value at human NTCP [1] amounted to 0.0511 ± 0.0093. Moreover, at human NTCP [1] (NTCP-HEK293 cells), the Kt stood at 1.55 µM and the “NTCP substrate (in words)” value is reported as “substrates”. Moreover, the “Normalized Jmax, fold lower than that for taurocholate” value on human NTCP [1] (versus taurocholate) was found to be 14 fold.

Regarding `C[C@H](CCC(=O)NCC(=O)O)[C@H]1CC[C@H]2[C@@H]3[C@@H](O)C[C@@H]4C[C@H](O)CC[C@]4(C)[C@H]3CC[C@]12C` [GUDCA, glycoursodeoxycholate], the “Normalized Jmax” value on human NTCP [1] was determined as 0.460 ± 0.143. Besides, at human NTCP [4], the affinity corresponds to a Ki of 15 µM and the “Inhibition of NTCP taurocholate uptake (in words)” value was “reduced by GUDCA in a concentration-dependent manner”.

Take `C[C@H](CCC(=O)NCCS(=O)(=O)O)[C@H]1CC[C@H]2[C@@H]3[C@H](O)C[C@@H]4C[C@H](O)CC[C@]4(C)[C@H]3CC[C@]12C` [TCDCA, taurochenodeoxycholate]: in the series on NTCP-HEK293 cells, the “Pp (passive permeability)” value is 4.35 ± 0.70 cm/s ×10^6. Further, the “Normalized Jmax” value on human NTCP [1] is reported as 0.621 ± 0.058. The compound further registered a Kt on human NTCP [1] (NTCP-HEK293 cells) of 8.12 ± 1.20 µM.

`C[C@H](CCC(=O)O)[C@H]1CC[C@H]2[C@@H]3[C@H](O)C[C@@H]4C[C@H](O)CC[C@]4(C)[C@H]3CC[C@]12C` [CDCA, chenodeoxycholate]: the “Pp (passive permeability)” value with NTCP-HEK293 cells was 27.6 ± 1.5 cm/s ×10^6. Also, the “NTCP substrate (in words)” value at human NTCP [1] (NTCP-HEK293 cells) is “indistinguishable uptake in the presence or absence of sodium; also recorded: no NTCP uptake”.

Consider `O=C1[C@H](CC[C@H](O)c2ccc(F)cc2)[C@@H](c2ccc(O)cc2)N1c1ccc(F)cc1` [Ezetimibe], for which the “NTCP substrate (in words)” value at human NTCP [1] (NTCP-HEK293 cells) was “not to be NTCP substrates”. Moreover, the “Previously identified as NTCP inhibitor (in words)” value on human NTCP [2] is “previously identified as NTCP inhibitors”.

In general, Ki refers to the dissociation constant of the complex between target and ligand, obtained from inhibition or displacement. A higher Ki goes with weaker binding.
